# Results reported in patent publication US20040138094A1, “Treatment regimes” (priority 2003, published 2004).
# Legend:
# [1] = tested on: ABCA1 mRNA in THP1 macrophages; test: ABCA1 mRNA expression by RTQ-PCR in THP1 macrophages; format: cell-based, human; conditions: for Induction of ABCA1 mRNA expression (in words): THP1 macrophages, 100 nM, FIG. 1A
# Procedure: (§1) THP1 human monocyte cells (ATCC TID-202), in 6-well plates at a density of 1×10^6 cells/well in RPMI 1640 medium containing 10% FBS, were differentiated into macrophages by treatment with PMA (100 ng/ml) for 5 days. 1BR3N human skin fibroblasts (ECACC 90020508) and FHS74 human intestinal cells (ATCC CCL-241) were plated in 6 well plates at a density of 1×10^6 cells/well in the recommended maintenance media. Cells were treated with vehicle (0.1% DMSO) or test compound for 48 h prior to harvesting. Total RNA was generated using the Qiagen RNeasy Mini Kit and DNase treated according to the manufacturer's protocol (Ambion). ABCA1 expression was analysed using RTQ-PCR on an ABI PRISM 7700 sequence detection system (P. E. Applied Biosystems). Primer/probe sequences used were as follows: ABCA1 forward primer 5′-[…]-3′, (Seq ID No:1) reverse primer 5′-[…]-3′, (Seq ID No:2) probe 5′FAM-[…]-TAMRA3′ (Seq ID No:3) Expression data were normalised to 18S as described by the vendor.
# [2] = tested on: THP1 macrophages; test: ApoA1-specific cholesterol efflux from THP1 macrophages; format: cell-based, human
# Procedure: (§2) Following differentiation to macrophages, THP1 cells were washed in serum-free medium and incubated in 5% FBS medium containing 1 μCi/mL of [^3H]-cholesterol (New England Nuclear) and 0.2% fatty acid-free BSA (faf BSA) for a further 24 h. The cells were washed in serum-free medium and then incubated for 24 h in serum-free medium supplemented with 1.5% faf BSA±test compound or vehicle (0.1% DMSO). The equilibration medium was removed and the cells washed twice in serum-free medium. Serum-free DMEM containing compound±purified human apolipoprotein (apo) Al ([…], Athens Research & Technology) was added. The cells were maintained for 24 h before medium and cell extract samples were generated. Scintillation counting was performed to determine the percentage cellular cholesterol efflux±apoAl. 1BR3N human skin fibroblast cells were plated in 6-well plates at a density of 1×10^6 cells/well in DMEM medium containing 10% FBS and cultured for 24 h. Efflux studies were performed as in the THP1 macrophages except that the cells were maintained for 48 h before scintillation counting was performed.
# [3] = tested on: macrophages; conditions: 50 μM, reported in ref 16; cited from earlier work
# [4] = tested on: ABCA1 in macrophages; conditions: 50 μM, reported in ref 16; cited from earlier work
# [5] = tested on: ABCA1 mRNA in 1BR3N human skin fibroblasts; test: ABCA1 mRNA expression by RTQ-PCR in 1BR3N human skin fibroblasts; format: cell-based
# Procedure: as §1
# [6] = tested on: ABCA1 mRNA in FHS74 human intestinal cells; test: ABCA1 mRNA expression by RTQ-PCR in FHS74 human intestinal cells; format: cell-based
# Procedure: as §1
# [7] = tested on: 1BR3N human skin fibroblasts; test: ApoA1-specific cholesterol efflux from 1BR3N human skin fibroblasts; format: cell-based
# Procedure: as §2
# [8] = THP1 macrophages, 100 nM, FIG. 1B
smiles,measurement,setting,value
"CC(C)(Sc1ccc(CCN(CCCCC2CCCCC2)C(=O)NC2CCCCC2)cc1)C(=O)O [GW7647, reference compound]",Induction of ABCA1 mRNA expression (in words),[1],only a weak effect
same,Effect on cholesterol efflux (in words),[2]; [8],ineffective
"Cc1cccc(Nc2cc(Cl)nc(SCC(=O)O)n2)c1C [Wy14,643]",Cholesterol efflux from macrophages (in words),[3],induces
same,ABCA1 expression (in words),[4],induces
"COC(=O)c1ccccc1N[C@@H](Cc1ccc(OCCc2nc(-c3ccccc3)oc2C)cc1)C(=O)O [GW7845, reference compound]",Induction of ABCA1 mRNA expression (in words),[1],also induced ABCA1 expression
same,Effect on cholesterol efflux (in words),[2]; [8],ineffective
"Cc1cc(SCc2sc(-c3ccc(C(F)(F)F)cc3)nc2C)ccc1OCC(=O)O [GW501516, 2-(2-methyl-4[({4-methyl-2[4-(trifluoromethyl)phenyl]-1,3-thiazol-5-yl}methyl)sulfanyl]phenoxy}acetic acid]",ABCA1 mRNA (% increase),"[5]; 1BR3N fibroblast, 48 h, (GW-vehicle)/vehicle × 100, mean ± S.D., triplicate",240 ± 25%
same,Increase in ABCA1 expression,[5]; 1BR3N human skin fibroblasts,3.4 fold
same,Increase in ABCA1 expression,[6]; FHS74 human intestinal cells,2.1 fold
same,ABCA1 mRNA (% increase),"[6]; FHS74 intestinal, 48 h, (GW-vehicle)/vehicle × 100, mean ± S.D., triplicate",115 ± 30%
same,ABCA1 mRNA (% increase),"[1]; THP1 macrophage, 48 h, (GW-vehicle)/vehicle × 100, mean ± S.D., triplicate",460 ± 150%
same,Induction of ABCA1 mRNA expression (in words),[1],strong induction
same,Cholesterol efflux (% increase),"[2]; THP1 macrophage, (GW-vehicle)/vehicle × 100, mean ± S.D., triplicate",100 ± 15%
same,Increase in cholesterol efflux to apoA1,[2]; [8],2 fold
same,Cholesterol efflux (% increase),"[7]; 1BR3N fibroblast, (GW-vehicle)/vehicle × 100, mean ± S.D., triplicate",110 ± 10%
same,Increase in apoA1-specific cholesterol efflux,[7]; 1BR3N human skin fibroblasts,2 fold
